# Measurements reported in patent publication US6906108B2, “Extracts of vetiver oil as repellent and toxicant to ants, ticks, and cockroaches” (Board of Supervisors of Louisiana State University and …, priority 2001, dated 2005).
# What was measured:
# [1] = system: German cockroaches (Blattella germanica); assay: German cockroach Petri dish filter paper bioassay (repellency and toxicity); assay type: in vivo
# Method: To test the efficacy of nootkatone against cockroaches, German cockroaches (Blattella germanica) were collected at Baton Rouge, La., the same day as the bioassay was begun.
# For the bioassay, Petri dishes (10 cm diameter×1 cm) were used. The Petri dishes were prepared by lining one half of the top and one half of the bottom with a half circle of filter paper (125 mm), and lining the other half with a second half circle of filter paper. For the treated Petri dishes, 50 mg nootkatone and 300 mg REPEL® were dissolved in 2.0 ml ethanol. To each Petri dish was added either ethanol only, 30 mg Deet, 1 mg nootkatone, or 10 mg nootkatone. Ten replicate Petri dishes were used for each of the treatments. The ethanol solution was added to the filter paper on the top and bottom and dried for 10 min. One cockroach was added to each Petri dish. The length of the cockroaches varied from 1 to 1.5 cm. The dishes were then observed at 15 min, 30 min, 1 hr, 2 hr, 3 hr, 4 hr, 5 hr, 24 hr, 48 hr, and 120 hr.
# [2] = system: Imported red fire ants, Solenopsis invicta; assay: Fire ant three-chambered container bioassay with treated sand (repellency and mortality); assay type: in vivo; settings: for Percent ants in the sand area after 15 min / Number of ants (% ± SE) in the sand area after 15 min (test after 40 days): mean ± SE; for Living ants found in the sand area over seven days: FIG. 1; for Living ants found in the sand area over 7 days: FIG. 3
# Text: Nootkatone was purchased from a commercial source (Lancaster Synthesis Inc. Windham, N.H.). The source of the vetiver oil was The Good Scents Company (Oak Creek, Wis.). Three-chambered clear plastic containers (17×8×4 cm; Pioneer Packaging Co., North Dixon, Ky.) were used to test the effect of nootkatone and vetiver oil on the fire ants. Each rectangular container (17×8×4 cm) was divided into three equal compartments with two inner walls. A small hole (0.5 cm diameter) was melted at the bottom of each of the inner walls to permit fire ant access to all chambers. The top inner sides of the containers were coated with FLUON® (Northern Products, Inc., Woonsocket, R.I.) to prevent ants from escaping. Into the far left chamber, designated the “nest area,” was placed a 55 mm #2 Whatman filter paper circle (Whatman International, Maidstone, England) moistened with 0.5 ml ddH2O to serve as a substrate. For a food source, a second 55 mm #2 Whatman filter paper circle was moistened with 0.5 ml 10% sucrose solution and placed in the far right chamber (“feeding area”). In the middle chamber, 30 g of #4 fine blasting sand (Easy Crete, Inc., Greenwell Springs, La.) moistened with 3 ml ddH2O was added. The sand had previously been treated by mixing with ethanol only (the controls) or with ethanol and solutions of nootkatone or vetiver oil to obtain final concentrations of 10 μg/g sand and 100 μg/g sand. The treated sand was allowed to air-dry for 2 hr in a ventilated hood before placing into the container.
# Imported red fire ants, Solenopsis invicta, were collected the day before beginning the experiment from two Louisiana colonies (Colony A and Colony B) whose nests were 50 m apart. For each container, 30 workers were placed in the nest area in a small Petri dish (3.5 cm diameter) with the lid closed initially. The total number of containers was 30; 15 for each colony. For each colony, three replicates were established for each of the following treatments: a control; 10 μg/g nootkatone ([…]), 100 μg/g nootkatone (“Noot-100”), 10 μg/g vetiver oil (“Vet-10”), […].
# After the ants were acclimated, the lid on the Petri dish was removed. Ant behavior was observed during the first 15 min for the following: time for the first ant to cross into the middle chamber; time for the first ant to cross into the feeding area; and number of ants in the middle chamber after 5, 10, and 15 min. The plastic containers were kept closed with lids in a thermostatic chamber at 27° C. for one week. Each day at the same time, the numbers of live and dead ants in each chamber were noted.
# To test for effectiveness of nootkatone and vetiver oil after the passage of time, the above experiment was repeated 40 days later with sand that had been treated at the same time as the above experiment. For 40 days, the sand had been maintained in separate chambers with non-hermetic lids in a dark room at room temperature. For this second experiment, fire ants were freshly collected from two different Louisiana colonies.
# The number of ants, expressed as a percent of the total number in the container, found in the treated area after the first 15 minutes was compared using a two-way ANOVA followed by Newman-Keuls post-hoc test, considering the factors “colony” (A, B) and “treatment” (Control, Noot-100, Noot-10, Vet-100, Vet-10). Data for both the number of live and dead ants (expressed as percent of the total) during the seven days of the experiment were analyzed with 2-way ANOVA for repeated measures followed by Newman-Keuls post-hoc tests, considering the variables “colony” and “treatment” and the variable “day” as the repeated factor. All data were analyzed using Statistica 5.5 (1999 edition, Statsoft Inc., Tulsa, Okla.).
compound,measurement,setting,value
"C=C(C)C1CCC2=CC(=O)CC(C)C2(C)C1 (centres unmarked) [nootkatone, 4,4a,5,6,7,8-hexahydro-6-isopropenyl-4,4a-dimethyl-2(3H)-naphthalone]",Repellent activity against the cockroaches,[1]; 1 mg per dish,weak repellent
same,Percent Repellency,"[1]; 1 mg per dish, 30 min",70%
same,Percent Repellency,"[1]; 1 mg per dish, 1 hr",60%
same,Percent Repellency,"[1]; 1 mg per dish, 2 hr",50%
same,Percent Repellency,"[1]; 1 mg per dish, 3 hr",78%
same,Percent Repellency,"[1]; 1 mg per dish, 4 hr",78%
same,Percent Repellency,"[1]; 1 mg per dish, 5 hr",78%
same,Percent Repellency,"[1]; 1 mg per dish, 24 hr",56%
same,Percent Repellency,"[1]; 1 mg per dish, 48 hr",78%
same,Percent Repellency,"[1]; 1 mg per dish, 120 hr",100%
same,Percent Repellency,"[1]; 10 mg per dish, 30 min",90%
same,Percent Repellency,"[1]; 10 mg per dish, 1 hr",100%
same,Percent Repellency,"[1]; 10 mg per dish, 2 hr",100%
same,Percent Repellency,"[1]; 10 mg per dish, 3 hr",100%
same,Percent Repellency,"[1]; 10 mg per dish, 4 hr",100%
same,Percent Repellency,"[1]; 10 mg per dish, 5 hr",100%
same,Percent Repellency,"[1]; 10 mg per dish, 24 hr",100%
same,Percent Repellency,"[1]; 10 mg per dish, 48 hr",100%
same,Percent Repellency,"[1]; 10 mg per dish, 120 hr",100%
same,Number of cockroach deaths compared with the control,"[1]; any of the treatments (30 mg Deet; 1 mg or 10 mg nootkatone), up to 120 hr",not significantly different from the control
same,Percent ants in the sand area after 15 min,"[2]; 10 μg/g sand, sand treated 2 hr prior",23.89 ± 3.35 b %
same,Number of ants (% ± SE) in the sand area after 15 min (test after 40 days),"[2]; 10 μg/g sand, sand treated 40 days prior",26.11 ± 3.07 b %
same,Percent ants in the sand area after 15 min,"[2]; 100 μg/g sand, sand treated 2 hr prior",13.33 ± 2.42 b %
same,Number of ants (% ± SE) in the sand area after 15 min (test after 40 days),"[2]; 100 μg/g sand, sand treated 40 days prior",13.89 ± 1.99 b %
same,Living ants found in the sand area over seven days,"[2]; highest concentration (100 μg/g), sand treated 2 hr prior",Almost no ants
same,Cumulative mortality over 7 days,"[2]; highest concentration (100 μg/g), sand treated 2 hr prior, FIG. 2",highest
same,Living ants found in the sand area over 7 days,"[2]; highest concentration (100 μg/g), sand treated 40 days prior",Almost no ants
same,Cumulative mortality over 7 days,"[2]; highest concentration (100 μg/g), sand treated 40 days prior, FIG. 4",always greatest
same,Cumulative mortality over 7 days,"[2]; lower concentration (10 μg/g), sand treated 40 days prior, compared with highest concentration, FIG. 4",significantly lower
same,Living ants found in the sand area over seven days,"[2]; lowest concentration (10 μg/g), sand treated 2 hr prior, vs controls",substantially lower numbers of ants
same,Living ants found in the sand area over 7 days,"[2]; lowest concentration (10 μg/g), sand treated 40 days prior, vs controls",significantly lower numbers of ants
same,Effectiveness forty days after the initial application,[2]; sand treated 40 days prior,still effective
